# Measured values: PubChem BioAssay (NCI)
#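 Interpolation was linear, between the two tested concentrations surrounding the appropriate level; five concentrations were tested over 48 hours in 96-well plates. GI50 is the concentration that inhibits growth by half. TGI is the concentration that stops growth completely.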
# Columns and labels:
# Assay in all cases: growth of human tumour cells (NCI), 48 h
# [1] = tested on: PC-3 prostate
# [2] = tested on: NCI-H522 lung
# [3] = tested on: T-47D breast
# [4] = tested on: U251 CNS
# [5] = tested on: MCF7 breast
# [6] = tested on: SF-295 CNS
# [7] = tested on: HL-60(TB) leukemia
# [8] = tested on: OVCAR-5 ovarian
# [9] = tested on: SNB-19 CNS
# [10] = tested on: HOP-92 NSCLC
# [11] = tested on: SF-539 CNS
# [12] = tested on: HCC-2998 colon
# [13] = tested on: HT29 colon
# [14] = tested on: UO-31 renal
# [15] = tested on: MDA-MB-435
# [16] = tested on: UACC-257 melanoma
# [17] = tested on: A549 NSCLC
# [18] = tested on: SK-MEL-5 melanoma
# [19] = tested on: NCI-H226 lung
# [20] = tested on: OVCAR-8 ovarian
# [21] = tested on: HOP-62 NSCLC
# [22] = tested on: M14 melanoma
# [23] = tested on: NCI-H23 lung
# [24] = tested on: UACC-62 melanoma
# [25] = tested on: NCI-H460 lung
# [26] = tested on: TK-10 renal
# [27] = tested on: LOX IMVI melanoma
# [28] = tested on: SR leukemia
# [29] = tested on: BT-549 breast
# [30] = tested on: IGROV1 ovarian
# [31] = tested on: HCT-15 colon
# [32] = tested on: KM12 colon
# [33] = tested on: COLO 205 colon
# [34] = tested on: OVCAR-3 ovarian
# [35] = tested on: MDA-MB-231 breast
# [36] = tested on: MOLT-4 leukemia
# [37] = tested on: CAKI-1 renal
# [38] = tested on: SNB-75 CNS
# [39] = tested on: RPMI-8226 leukemia
# [40] = tested on: NCI/ADR-RES ovarian
# [41] = tested on: SK-MEL-2 melanoma
# [42] = tested on: MALME-3M melanoma
# [43] = tested on: DU-145 prostate
# [44] = tested on: OVCAR-4 ovarian
# [45] = tested on: CCRF-CEM leukemia
# [46] = tested on: SF-268 CNS
# [47] = tested on: RXF 393 renal
# [48] = tested on: SK-OV-3 ovarian
# [49] = tested on: A498 renal
# [50] = tested on: SN12C renal
# [51] = tested on: SK-MEL-28 melanoma
# [52] = tested on: SW-620 colon
# [53] = tested on: HCT-116 colon
# [54] = tested on: HS 578T breast
# [55] = tested on: ACHN renal
# [56] = tested on: 786-0 renal
# [57] = tested on: EKVX NSCLC
# [58] = tested on: K-562 leukemia
compound,measurement,setting,value
CCC[CH2][Sn]1([CH2]CCC)[O]C(=O)c2cccc([N+](=O)[O-])c2C(=O)[O]1,GI50,[1],1.06 µM
same,TGI,[1],2.45 µM
same,GI50,[2],0.0711 µM
same,TGI,[2],0.217 µM
same,GI50,[3],0.0604 µM
same,TGI,[3],0.27 µM
same,GI50,[4],0.633 µM
same,TGI,[4],1.94 µM
same,GI50,[5],0.244 µM
same,TGI,[5],1.13 µM
same,GI50,[6],1.55 µM
same,TGI,[6],2.95 µM
same,GI50,[7],0.206 µM
same,TGI,[7],1.35 µM
same,GI50,[8],1.11 µM
same,TGI,[8],2.49 µM
same,GI50,[9],1.2 µM
same,TGI,[9],2.51 µM
same,GI50,[10],0.228 µM
same,TGI,[10],1.66 µM
same,GI50,[11],0.497 µM
same,TGI,[11],1.73 µM
same,GI50,[12],1.11 µM
same,TGI,[12],2.45 µM
same,GI50,[13],1.31 µM
same,TGI,[13],2.87 µM
same,GI50,[14],0.329 µM
same,TGI,[14],1.41 µM
same,GI50,[15],0.594 µM
same,TGI,[15],1.91 µM
same,GI50,[16],0.292 µM
same,TGI,[16],1.19 µM
same,GI50,[17],1.77 µM
same,TGI,[17],3.59 µM
same,GI50,[18],0.919 µM
same,TGI,[18],2.22 µM
same,GI50,[19],0.331 µM
same,TGI,[19],1.34 µM
same,GI50,[20],1.04 µM
same,TGI,[20],2.24 µM
same,GI50,[21],1.92 µM
same,TGI,[21],3.36 µM
same,GI50,[22],0.682 µM
same,TGI,[22],2.07 µM
same,GI50,[23],0.301 µM
same,TGI,[23],1.19 µM
same,GI50,[24],0.381 µM
same,TGI,[24],1.5 µM
same,GI50,[25],1.66 µM
same,TGI,[25],3.57 µM
same,GI50,[26],0.335 µM
same,TGI,[26],0.805 µM
same,GI50,[27],0.259 µM
same,TGI,[27],0.7 µM
same,GI50,[28],0.28 µM
same,TGI,[28],1.97 µM
same,GI50,[29],0.849 µM
same,TGI,[29],2.09 µM
same,GI50,[30],0.89 µM
same,TGI,[30],2.38 µM
same,GI50,[31],0.3 µM
same,TGI,[31],1.31 µM
same,GI50,[32],1.6 µM
same,TGI,[32],3.16 µM
same,GI50,[33],0.617 µM
same,TGI,[33],1.93 µM
same,GI50,[34],1.06 µM
same,TGI,[34],2.3 µM
same,GI50,[35],0.271 µM
same,TGI,[35],1.04 µM
same,GI50,[36],0.409 µM
same,TGI,[36],2.98 µM
same,GI50,[37],0.332 µM
same,TGI,[37],1.39 µM
same,GI50,[38],0.324 µM
same,TGI,[38],1.64 µM
same,GI50,[39],0.186 µM
same,TGI,[39],0.596 µM
same,GI50,[40],1.53 µM
same,TGI,[40],3.21 µM
same,GI50,[41],0.286 µM
same,TGI,[41],0.825 µM
same,GI50,[42],0.189 µM
same,TGI,[42],0.623 µM
same,GI50,[43],0.795 µM
same,TGI,[43],2.05 µM
same,GI50,[44],0.465 µM
same,TGI,[44],1.73 µM
same,GI50,[45],0.0617 µM
same,TGI,[45],0.683 µM
same,GI50,[46],0.431 µM
same,TGI,[46],1.65 µM
same,GI50,[47],0.27 µM
same,TGI,[47],0.783 µM
same,GI50,[48],1.69 µM
same,TGI,[48],3.07 µM
same,GI50,[49],0.191 µM
same,TGI,[49],0.547 µM
same,GI50,[50],0.784 µM
same,TGI,[50],2.15 µM
same,GI50,[51],0.465 µM
same,TGI,[51],1.43 µM
same,GI50,[52],0.171 µM
same,TGI,[52],0.54 µM
same,GI50,[53],0.435 µM
same,TGI,[53],1.62 µM
same,GI50,[54],0.907 µM
same,TGI,[54],3.73 µM
same,GI50,[55],0.348 µM
same,TGI,[55],1.27 µM
same,GI50,[56],0.724 µM
same,TGI,[56],1.99 µM
Cc1cc(I)cc(CN(C)CCCN2CCC(C)CC2)c1O,GI50,[1],14.1 µM
same,TGI,[1],29.7 µM
same,GI50,[2],16.4 µM
same,TGI,[2],32.2 µM
same,GI50,[3],15.8 µM
same,TGI,[3],40.7 µM
same,GI50,[4],15.2 µM
same,TGI,[4],29.8 µM
same,GI50,[5],14.2 µM
same,TGI,[5],28.2 µM
same,GI50,[6],14.5 µM
same,TGI,[6],29.3 µM
same,GI50,[7],12.5 µM
same,TGI,[7],31.6 µM
same,GI50,[8],15.6 µM
same,TGI,[8],34.4 µM
same,GI50,[9],16.4 µM
same,TGI,[9],34 µM
same,GI50,[10],6.62 µM
same,TGI,[10],21.5 µM
same,GI50,[11],14 µM
same,TGI,[11],27.5 µM
same,GI50,[12],12.4 µM
same,TGI,[12],25.4 µM
same,GI50,[13],9.02 µM
same,TGI,[13],21.3 µM
same,GI50,[14],11.4 µM
same,TGI,[14],24.8 µM
same,GI50,[15],11.6 µM
same,TGI,[15],25 µM
same,GI50,[16],11.8 µM
same,TGI,[16],25.3 µM
same,GI50,[17],15.4 µM
same,TGI,[17],29.6 µM
same,GI50,[18],4.98 µM
same,TGI,[18],17.2 µM
same,GI50,[19],17.2 µM
same,TGI,[19],39.1 µM
same,GI50,[20],16.7 µM
same,TGI,[20],33.5 µM
same,GI50,[21],14.1 µM
same,TGI,[21],27.2 µM
same,GI50,[22],13.7 µM
same,TGI,[22],26.8 µM
same,GI50,[23],15.4 µM
same,TGI,[23],33.7 µM
same,GI50,[24],14.2 µM
same,TGI,[24],30.4 µM
same,GI50,[25],12.5 µM
same,TGI,[25],25 µM
same,GI50,[26],14.7 µM
same,TGI,[26],29.2 µM
same,GI50,[27],15.5 µM
same,TGI,[27],31.4 µM
same,GI50,[28],11.5 µM
same,TGI,[28],32.2 µM
same,GI50,[29],11.2 µM
same,TGI,[29],23.8 µM
same,GI50,[30],13.6 µM
same,TGI,[30],29.1 µM
same,GI50,[31],12.1 µM
same,TGI,[31],26.7 µM
same,GI50,[32],13.1 µM
same,TGI,[32],27.9 µM
same,GI50,[33],13.4 µM
same,TGI,[33],28 µM
same,GI50,[34],13.7 µM
same,TGI,[34],28.1 µM
same,GI50,[35],15.1 µM
same,TGI,[35],32 µM
same,GI50,[36],10 µM
same,TGI,[36],26.4 µM
same,GI50,[37],13.5 µM
same,TGI,[37],28.7 µM
same,GI50,[38],11 µM
same,TGI,[38],23 µM
same,GI50,[57],14.2 µM
same,TGI,[57],31 µM
same,GI50,[39],12.6 µM
same,TGI,[39],32 µM
same,GI50,[40],14.3 µM
same,TGI,[40],31 µM
same,GI50,[41],17.4 µM
same,TGI,[41],33.9 µM
same,GI50,[42],16.9 µM
same,TGI,[42],33 µM
same,GI50,[43],15.5 µM
same,TGI,[43],28.8 µM
same,GI50,[44],13.1 µM
same,TGI,[44],31.7 µM
same,GI50,[46],14.6 µM
same,TGI,[46],27.7 µM
same,GI50,[47],10.5 µM
same,TGI,[47],23.5 µM
same,GI50,[48],15.9 µM
same,TGI,[48],31.1 µM
same,GI50,[49],7.53 µM
same,TGI,[49],21.2 µM
same,GI50,[50],24 µM
same,TGI,[50],93.4 µM
same,GI50,[51],12.1 µM
same,TGI,[51],24.5 µM
same,GI50,[58],10.9 µM
same,TGI,[58],35.7 µM
same,GI50,[52],13.6 µM
same,TGI,[52],26.6 µM
same,GI50,[53],10.4 µM
same,TGI,[53],22.1 µM
same,GI50,[54],12.1 µM
same,TGI,[54],26.2 µM
same,GI50,[55],16.3 µM
same,TGI,[55],30.7 µM
same,GI50,[56],13.4 µM
same,TGI,[56],26.2 µM
